Source: ChEMBL document CHEMBL1177879, “Transition metal complexes of a new hexadentate macroacyclic N2O4-donor Schiff base: inhibitory activity against bacteria and fungi” (2010)

Legend:
Conditions in all cases: read-out: IZ
[1] = tested on: Escherichia coli; test: Antibacterial activity against Escherichia coli at 50 ug after 48 hrs by agar well diffusion assay; type: functional
[2] = tested on: Aspergillus niger; test: Antifungal activity against Aspergillus niger at 50 ug after 48 hrs by agar well diffusion assay; type: functional
[3] = tested on: Candida albicans; test: Antifungal activity against Candida albicans at 50 ug after 48 hrs by agar well diffusion assay; type: functional
[4] = tested on: Bacillus cirroflagellosus; test: Antibacterial activity against Bacillus cirroflagellosus at 50 ug after 48 hrs by agar well diffusion assay

SMILES	zone of inhibition at 50 µg/disc [1] [mm]	zone of inhibition at 50 µg/disc [2] [mm]	zone of inhibition at 50 µg/disc [3] [mm]	zone of inhibition at 50 µg/disc [4] [mm]
O=NN(CC(=O)N/N=C\C=N\NC(=O)CN(N=O)c1ccccc1)c1ccccc1	16.3	16.7	19.3	16
COC1=CC(=O)C[C@@H](C)[C@]12Oc1c(Cl)c(OC)cc(OC)c1C2=O [GRISEOFULVIN]		29	29.3	
CCn1cc(C(=O)O)c(=O)c2cc(F)c(N3CCNCC3)cc21 [NORFLOXACIN]	28.3			28.3
